Measurements: patent publication EP0415126B1, “Anti-dental plaque agents” (MITSUI NORIN CO., LTD., priority 1989, dated 1991)

Test system: glucosyltransferase
Assay: Inhibition of water-insoluble glucan formation by crude glucosyltransferase (14C-sucrose, scintillation counting)
Assay type: biochemical, Streptococcus mutans OMZ 176
Conditions: Water-insoluble glucan formation vs control, 60 minutes at 37°C, pH 6.8
Experimental: Crude glucosyltransferase was refined from Streptococcus mutans OMZ 176 according to the method described by Mukasa and Slads in Infect. Immun., 8, 555 (1973) and 9, 419 (1974).
The above GTF, labeled sucrose and the tea polyphenol compounds were mixed together to the following final concentrations, and was regulated with a 50 mM phosphate buffer (with pH 6.8). GTF: 0.34 mg protein/ml 0.1 mM (¹⁴C) sucrose: 0.1 »Ci/»l Present agent: 1 to 10 mg/ml or 1 to 10 mM.
Twenty (20) »l of the mixture solution were subjected to a reaction for 60 minutes at 37°C. After the completion of the reaction, 5 »l of the reaction mixture and 5 »l of supernatant obtained by centrifugation of the reaction mixture at 5,500 x g for 3 minutes were applied to a filter paper respectively, and then developed with a developing solution of butanol-pyridine-water (6:4:3), followed by counting with a scintillation counter. The amount of water-insoluble glucan was found by a difference between the measurements of the reaction mixture and the supernatant. The GTF inhibiting ability is expressed in terms of the rate of inhibiting the formation of water-insoluble glucan with respect to a control to which the tea polyphenol compounds were not added.

| Compound | Inhibition (%) (sample concentration 1.0 mM) | Inhibition (%) (sample concentration 10.0 mM) |
| --- | --- | --- |
| (-)-Catechin | 15 | 45 |
| Oc1cc(O)c2c(c1)O[C@H](c1ccc(O)c(O)c1)[C@@H](O)C2 [(+)-Catechin] | 22 | 62 |
| O=C(O[C@@H]1Cc2c(O)cc(O)cc2O[C@@H]1c1cc(=O)c(O)c2c(O)c(O)cc([C@H]3Oc4cc(O)cc(O)c4C[C@H]3O)c2c1)c1cc(O)c(O)c(O)c1 [Theaflavin monogallate A] | 64 | 97 |
| O=C(O[C@@H]1Cc2c(O)cc(O)cc2O[C@@H]1c1cc(O)c(O)c2c(=O)c(O)cc([C@H]3Oc4cc(O)cc(O)c4C[C@H]3O)cc12)c1cc(O)c(O)c(O)c1 [Theaflavin monogallate B] | 47 | 98 |
| O=C(O[C@@H]1Cc2c(O)cc(O)cc2O[C@H]1c1cc(O)c(O)c(O)c1)c1cc(O)c(O)c(O)c1 [(-)-Gallocatechin gallate] | 47 | 95 |
| Oc1cc(O)c2c(c1)O[C@H](c1cc(O)c(O)c(O)c1)[C@@H](O)C2 [(+)-Gallocatechin] | 15 | 51 |
| (-)-Epicatechin | 5 | 42 |
| (-)-Gallocatechin | 20 | 30 |
| O=C(O[C@@H]1Cc2c(O)cc(O)cc2O[C@@H]1c1cc(O)c(=O)c2c(O)c(O)cc([C@H]3Oc4cc(O)cc(O)c4C[C@H]3OC(=O)c3cc(O)c(O)c(O)c3)c2c1)c1cc(O)c(O)c(O)c1 [Theaflavin digallate] | 56 | 98 |
| O=c1c(O)cc([C@H]2Oc3cc(O)cc(O)c3C[C@H]2O)cc2c([C@H]3Oc4cc(O)cc(O)c4C[C@H]3O)cc(O)c(O)c12 [Free theaflavin] | 57 | 98 |
| (-)-Epicatechin gallate | 35 | 83 |
| Oc1cc(O)c2c(c1)O[C@@H](c1ccc(O)c(O)c1)[C@@H](O)C2 [(+)-Epicatechin] | 12 | 42 |
